Measured values published in US20060094002A1 (priority 2002, published 2006).

test system: Aspergillus (A. nidulans, A. niger, A. awamori); assay: Effect of known antifungal drugs on [Ca2+]c in different Aspergillus species; type: cell-based; conditions: FIGS. 22a, b
Description: Procedure: • The fungus can be either transformed with the recombinant aequorin gene or can be injected with the active aequorin. • Then this fungus can be subjected to a range of the antifungal drugs, profiles of which have already been created. • Obtained profiles can be compared with the library of the fingerprints and this way the fungal species can be identified.

Row | Compound | [Ca^2+]c response in 3 different species of Aspergillus
1 | CC(=O)N1CCN(c2ccc(OCC3COC(Cn4ccnc4)(c4ccc(Cl)cc4Cl)O3)cc2)CC1 (centres unmarked) [ketoconazole] | caused a different [Ca^2+]c response
2 | Clc1ccccc1C(c1ccccc1)(c1ccccc1)n1ccnc1 [clotrimazole] | caused a different [Ca^2+]c response
3 | C[C@@H]1[C@H](O)[C@@H](C)/C=C/C=C/CC/C=C/C=C/C=C/C=C/C(O[C@H]2O[C@H](C)[C@@H](O)[C@H](N)[C@@H]2O)CC2O[C@](O)(CC(O)C(O)CCC(O)CC(O)CC(O)CC(=O)O[C@H]1C)CC(O)C2C(=O)O (some centres unmarked) [nystatin] | caused a different [Ca^2+]c response
4 | C[C@@H]1[C@H](O)[C@@H](C)/C=C/C=C/C=C/C=C/C=C/C=C/C=C/[C@H](O[C@@H]2O[C@H](C)[C@@H](O)[C@H](N)[C@@H]2O)C[C@@H]2O[C@](O)(C[C@@H](O)C[C@@H](O)[C@H](O)CC[C@@H](O)C[C@@H](O)CC(=O)O[C@H]1C)C[C@H](O)[C@H]2C(=O)O [amphotericin B] | caused a different [Ca^2+]c response
5 | CCCCC[C@@H](O)[C@H]1C(=O)O[C@H](C)[C@@H](O)/C=C/C=C/C=C/C=C/C=C(\C)[C@@H](O)C[C@H](O)C[C@H](O)C[C@H](O)C[C@H](O)C[C@H](O)C[C@@H]1O [filipin] | caused a different [Ca^2+]c response
